Mutagenic call and call data for 19 molecules are collected here from PubChem BioAssay AID1259408 (Genetic Toxicology Data Bank (GENE-TOX), 2018).

The source made the active and inactive calls. No rule for the calls is given here.

This data set concerns GENE-TOX genotoxicity assays, various organisms and cells. As to the kind of experiment: GENE-TOX mutagenicity studies. As to conditions: for call: Assay Type: In vivo carcinogenicity studies.
Setting [1] is: Species/Cell Type: Mammalian polychromatic erythrocytes, Assay Type: Micronucleus test, chromosome aberrations, Assay Code: MNTT, Evaluation Type: Evaluation A (Pre-1980).
[2] abbreviates: Species/Cell Type: Nonhuman, Assay Code: CCG+, Evaluation Type: Evaluation A (Pre-1980).
Where [3] appears, read: Species/Cell Type: Escherichia coli polA (W3119 vs P3478), Assay Type: Rec-assay, DNA effects (bacterial DNA repair), Assay Code: RE1T, Evaluation Type: Evaluation A (Pre-1980).
Where [4] appears, read: Species/Cell Type: Drosophila melanogaster, Assay Type: Sex-linked recessive lethal gene mutation, Assay Code: SRL-, Evaluation Type: Evaluation A (Pre-1980).
The mark [5] stands for this setting: Species/Cell Type: Salmonella typhimurium (one or more of the five standard strains: TA98, TA100, TA1535, TA1537, and TA1538), Assay Type: Histidine reverse gene mutation, Ames assay, Assay Code: SAL-, Evaluation Type: Evaluation A (Pre-1980).
Where [6] appears, read: Species/Cell Type: Nonhuman, Assay Type: Sister-chromatid exchange (SCE) in vivo, Assay Code: SC3+, Evaluation Type: Evaluation B (Post-1980).
[7] abbreviates: Species/Cell Type: Salmonella typhimurium (one or more of the five standard strains: TA98, TA100, TA1535, TA1537, and TA1538), Assay Type: Histidine reverse gene mutation, Ames assay, Assay Code: SALT, Evaluation Type: Evaluation A (Pre-1980).
The mark [8] stands for this setting: Species/Cell Type: Drosophila melanogaster, Assay Type: Sex-linked recessive lethal gene mutation, Assay Code: SRLT, Evaluation Type: Evaluation A (Pre-1980).
[9] abbreviates: Species/Cell Type: Salmonella typhimurium (one or more of the five standard strains: TA98, TA100, TA1535, TA1537, and TA1538), Assay Type: Histidine reverse gene mutation, Ames assay, Assay Code: SAL+*, Activation: With metabolic activation, Evaluation Type: Evaluation A (Pre-1980).

On to `O=NN(CCCl)C(=O)NCCCCO`, for which the mutagenic call (Species/Cell Type: Saccharomyces cerevisiae, Assay Type: Mitotic recombination or gene conversion, Assay Code: YEC+, Evaluation Type: Evaluation A (Pre-1980)) is “active; positive”.
As for `O=[N+]([O-])c1ccc(Oc2ccc(Cl)cc2Cl)cc1`, the mutagenic call under setting [1] was “no conclusion”. In addition, under setting [2], the call was “active; positive”.
With `COc1ccc(C(=O)N2c3ccccc3Cc3ccccc32)cc1`, for the setting “Species/Cell Type: Human, Sex: Male, Assay Type: Sperm morphology, Assay Code: SPH+, Evaluation Type: Evaluation A (Pre-1980)”, the mutagenic call was “active; positive”.
With `O=C1CNCC(=O)N1C1CC1N1C(=O)CNCC1=O` (stereo unspecified), the mutagenic call (Species/Cell Type: Chinese hamster lung (V79) cells, Assay Type: Forward gene mutation at the HPRT or ouabain locus, Assay Code: V79-, Evaluation Type: Evaluation A (Pre-1980)) is “inactive; negative”.
With `CN(CCCCC(=O)OC[C@H](N)C(=O)O)N=O`, the mutagenic call (Species/Cell Type: Escherichia coli polA (W3110 vs P3478), Assay Type: Rec-assay, DNA effects (bacterial DNA repair), Assay Code: RE2T, Evaluation Type: Evaluation A (Pre-1980)) is listed as “no conclusion” and the mutagenic call under setting [3] is “no conclusion”.
Regarding `Cc1cc(C(C)(C)C)c(O)c(C(C)(C)C)c1`, the mutagenic call is, setting by setting: (Species/Cell Type: Allium cepa, Assay Type: Chromosome aberrations, Assay Code: ALC+, Evaluation Type: Evaluation A (Pre-1980)) “active; positive”; (Species/Cell Type: Drosophila melanogaster, Assay Type: Aneuploidy, whole sex chromosome loss, chromosome aberrations, Assay Code: DAC+M, Evaluation Type: Evaluation A (Pre-1980)) “active; positive”; under setting [4], “inactive; negative”; (Species/Cell Type: Drosophila melanogaster, Sex: Male, Assay Type: Heritable translocation test, chromosome aberrations, Assay Code: DHTT, Evaluation Type: Evaluation A (Pre-1980)) “no conclusion”; under setting [1], “no conclusion”; (Species/Cell Type: Mouse, Sex: Male, Assay Type: Specific locus test, gene mutation, Assay Code: SLT-, Evaluation Type: Evaluation A (Pre-1980)) “inactive; negative”. In addition, the mutagenic call reads like this: (Species/Cell Type: Mouse, Sex: Male, Assay Type: Sperm morphology, Assay Code: SPIT, Evaluation Type: Evaluation A (Pre-1980)) “no conclusion”; under setting [5], “inactive; negative”.
Turning to `CN1CCN(CCCN2c3ccccc3Sc3ccc(S(=O)(=O)N(C)C)cc32)CC1`, the mutagenic call (Species/Cell Type: Rodents, Sex: Male, Assay Type: Dominant lethal test, Assay Code: DLT-, Evaluation Type: Evaluation A (Pre-1980)) was “inactive; negative”.
In the case of `CC1=NN(c2ccccc2)C(=O)C1`, the call (Species/Cell Type: Nonhuman, Assay Code: CCG-L, Evaluation Type: Evaluation A (Pre-1980)) is “inactive; negative”.
Turning to `CC(=O)Oc1ccc2c3c1O[C@H]1[C@@H](OC(C)=O)C=C[C@H]4[C@@H](C2)N(C)CC[C@@]341`, the mutagenic call under setting [6] is “active; positive”.
In the case of `CC(C)=O`, the mutagenic call (Species/Cell Type: Arabidopsis species, Assay Type: Gene mutation, Assay Code: ARM-, Evaluation Type: Evaluation A (Pre-1980)) is “inactive; negative”; the mutagenic call (Species/Cell Type: Fischer rat embryo (RLV/1706) cells, Assay Type: Cell transformation, viral enhanced, Assay Code: CTR-, Evaluation Type: Evaluation A (Pre-1980)) was “inactive; negative”; the mutagenic call (Species/Cell Type: Human, Assay Type: Sister-chromatid exchange (SCE) in vitro, Assay Code: SC1T, Evaluation Type: Evaluation B (Post-1980)) is reported as “no conclusion”; the mutagenic call (Species/Cell Type: Mammalian polychromatic erythrocytes, Assay Type: Micronucleus test, chromosome aberrations, Assay Code: MNT-, Evaluation Type: Evaluation B (Post-1980)) is “inactive; negative”; the mutagenic call (Species/Cell Type: Mouse embryo (AKR/ME) cells, Assay Type: Cell transformation, Assay Code: CTK-, Evaluation Type: Evaluation A (Pre-1980)) was “inactive; negative”; the mutagenic call (Species/Cell Type: Nonhuman, Assay Type: Chromosome aberrations in vitro, Assay Code: CY&-, Evaluation Type: Evaluation A (Pre-1980)) was “inactive; negative”. In addition, the mutagenic call was “inactive; negative” (Species/Cell Type: Nonhuman, Assay Type: Sister-chromatid exchange (SCE) in vitro, Assay Code: SC2-, Evaluation Type: Evaluation A (Pre-1980)); “inactive; negative” under setting [5]; “inactive; negative” (Species/Cell Type: Syrian hamster embryo (SHE) cells, Assay Type: Cell transformation, clonal assay, Assay Code: CTC-, Evaluation Type: Evaluation A (Pre-1980)).
In the case of `O=C(CCl)c1ccccc1`, the mutagenic call under setting [4] is “inactive; negative”.
Regarding `COc1cc(C(=O)CCN2CCCCC2)ccc1O`, where the note is “Species/Cell Type: Salmonella typhimurium, Assay Type: Forward and reverse gene mutation, host-mediated assay, Assay Code: HMA-, Evaluation Type: Evaluation A (Pre-1980)”, the mutagenic call was “inactive; negative”.
Take `CC(=O)Nc1nc(-c2ccc([N+](=O)[O-])o2)cs1`: the mutagenic call by setting is: (Species/Cell Type: Bacillus subtilis (H17 vs M45), Assay Type: Rec-assay, spot test, DNA effects (bacterial DNA repair), Assay Code: REW+, Evaluation Type: Evaluation A (Pre-1980)) “active; positive”; (Species/Cell Type: Escherichia coli WP2, Assay Type: Tryptophan reverse gene mutation, Assay Code: WP2+, Evaluation Type: Evaluation A (Pre-1980)) “active; positive”; (Species/Cell Type: Escherichia coli WP2 UVRA, Assay Type: Tryptophan reverse gene mutation, Assay Code: WPU-, Evaluation Type: Evaluation A (Pre-1980)) “inactive; negative”; (Species/Cell Type: Nonhuman, Assay Type: Sister-chromatid exchange (SCE) in vitro, Assay Code: SC2+D, Dose Response: With dose response, Evaluation Type: Evaluation B (Post-1980)) “active; positive”; (Species/Cell Type: Salmonella typhimurium (one or more of the five standard strains: TA98, TA100, TA1535, TA1537, and TA1538), Assay Type: Histidine reverse gene mutation, Ames assay, Assay Code: SAL+, Evaluation Type: Evaluation A (Pre-1980)) “active; positive”. Further, the call under setting [2] is “active; positive”.
With `O=[N+]([O-])c1ccc(-c2nc(N(CCO)CCO)c3ccccc3n2)s1`, the mutagenic call under setting [7] is on record as “no conclusion”.
Regarding `C=CC(O)c1ccc2c(c1)OCO2` (stereo unspecified), the mutagenic call under setting [8] is “no conclusion”; the mutagenic call (Species/Cell Type: Escherichia coli polA (W3119 vs P3478), Assay Type: Rec-assay, DNA effects (bacterial DNA repair), Assay Code: RE1-, Evaluation Type: Evaluation A (Pre-1980)) was “inactive; negative”; the mutagenic call (Species/Cell Type: Human diploid fibroblasts, Assay Type: Unscheduled DNA synthesis (UDS) in vitro, DNA effects, Assay Code: UDH+, Evaluation Type: Evaluation A (Pre-1980)) was “active; positive”; the mutagenic call (Species/Cell Type: Saccharomyces cerevisiae, Assay Type: Mitotic recombination or gene conversion, Assay Code: YEH+/-*, Activation: With metabolic activation, Evaluation Type: Evaluation A (Pre-1980)) was “inactive; positive without activation, negative with activation”; the mutagenic call under setting [5] was “inactive; negative”. In addition, the call under setting [2] is “active; positive”.
Take `Cc1n(C)c([N+](=O)[O-])c[n+]1C`: the mutagenic call under setting [7] is recorded as “no conclusion”.
Take `Cc1c2c(c3ccc4ccccc4c3c1C)CCC2=O`: the mutagenic call under setting [9] is “active; positive”.
`CN(C)c1ccc(N=Nc2ccccc2)cc1`: the mutagenic call (Species/Cell Type: Bacillus subtilis (H17 vs M45T), Assay Type: Rec-assay, spot test, DNA effects (bacterial DNA repair), Assay Code: REXT, Evaluation Type: Evaluation A (Pre-1980)) is reported as “no conclusion”; the mutagenic call under setting [8] was “no conclusion”; the mutagenic call (Species/Cell Type: Escherichia coli polA (W3110 vs P3478), Assay Type: Rec-assay, DNA effects (bacterial DNA repair), Assay Code: RE2-, Evaluation Type: Evaluation A (Pre-1980)) is “inactive; negative”; the mutagenic call under setting [3] is recorded as “no conclusion”; the mutagenic call (Species/Cell Type: Fischer rat embryo (RLV/1706) cells, Assay Type: Cell transformation, viral enhanced, Assay Code: CTR+, Evaluation Type: Evaluation A (Pre-1980)) was “active; positive”; the mutagenic call (Species/Cell Type: Human diploid fibroblasts, Assay Type: Unscheduled DNA synthesis (UDS) in vitro, DNA effects, Assay Code: UDHT, Evaluation Type: Evaluation A (Pre-1980)) is “no conclusion”. Besides, the mutagenic call was “active; positive” (Species/Cell Type: Mammalian polychromatic erythrocytes, Assay Type: Micronucleus test, chromosome aberrations, Assay Code: MNT+, Evaluation Type: Evaluation A (Pre-1980)); “inactive; negative” (Species/Cell Type: Mouse (BALB/c-3T3) cells, Assay Type: Cell transformation, Assay Code: CTB-, Evaluation Type: Evaluation A (Pre-1980)); “inactive; negative” (Species/Cell Type: Mouse, Sex: Male, Assay Type: Sperm morphology, Assay Code: SPI-, Evaluation Type: Evaluation A (Pre-1980)); “active; positive” (Species/Cell Type: Nonhuman, Assay Type: Sister-chromatid exchange (SCE) in vitro, Assay Code: SC2+D*, Activation: With metabolic activation, Dose Response: With dose response, Evaluation Type: Evaluation B (Post-1980)); “active; positive” under setting [6]; “inactive; negative” (Species/Cell Type: Saccharomyces cerevisiae, Assay Type: Mitotic recombination or gene conversion, Assay Code: YEH-, Evaluation Type: Evaluation A (Pre-1980)). Besides, the mutagenic call was “active; positive” under setting [9]; “active; positive” (Species/Cell Type: Salmonella typhimurium, Assay Type: Forward and reverse gene mutation, body fluid assay, Assay Code: BFU+, Evaluation Type: Evaluation A (Pre-1980)); “no conclusion” (Species/Cell Type: Syrian hamster embryo (SHE) cells, Assay Type: Cell transformation, clonal assay, Assay Code: CTCT, Evaluation Type: Evaluation A (Pre-1980)). Moreover, under setting [2], the call is “active; positive”.
Consider `O=c1cc(CO)occ1O`, for which, under setting [9], the mutagenic call is “active; positive”.
